Results published in patent US20260356830A1, “COMPOUNDS FOR MODULATING RET PROTEIN” (Bristol-Myers Squibb Company, priority 2022, published 2026).

Biological target: T1, CCDC6-RET (Homo sapiens, UniProt P07949+Q16204+Q96SW2)
T1 construct: CCDC6 (natural N-terminal fusion partner, UniProt Q16204); endogenous in cells; host or cells: TPC-1 (parental, papillary thyroid carcinoma)
Assay: Cellular RET degradation, AlphaLISA, TPC-1 cell line
Format: cell-based
Conditions: for Dmax: TPC1, human, 24 h, read-out: Cell Density TPC-1/CCDC6-RET Ymax %; for DC50: read-out: Cell Density TPC-1/CCDC6-RET DC50, half-maximal degradation concentration, TPC-1 (CCDC6-RET), 24 hrs
Method in brief: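 TPC-1 papillary thyroid carcinoma cells (endogenous CCDC6-RET) in DMEM with 2% FBS, compound-treated 24 h at 37 °C. RET in lysates quantified by AlphaLISA luminescence, normalized to media-only and DMSO wells; DC50 and maximal degradation from 4-parameter logistic fit.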

T1 sequence (Q16204+P07949 fused): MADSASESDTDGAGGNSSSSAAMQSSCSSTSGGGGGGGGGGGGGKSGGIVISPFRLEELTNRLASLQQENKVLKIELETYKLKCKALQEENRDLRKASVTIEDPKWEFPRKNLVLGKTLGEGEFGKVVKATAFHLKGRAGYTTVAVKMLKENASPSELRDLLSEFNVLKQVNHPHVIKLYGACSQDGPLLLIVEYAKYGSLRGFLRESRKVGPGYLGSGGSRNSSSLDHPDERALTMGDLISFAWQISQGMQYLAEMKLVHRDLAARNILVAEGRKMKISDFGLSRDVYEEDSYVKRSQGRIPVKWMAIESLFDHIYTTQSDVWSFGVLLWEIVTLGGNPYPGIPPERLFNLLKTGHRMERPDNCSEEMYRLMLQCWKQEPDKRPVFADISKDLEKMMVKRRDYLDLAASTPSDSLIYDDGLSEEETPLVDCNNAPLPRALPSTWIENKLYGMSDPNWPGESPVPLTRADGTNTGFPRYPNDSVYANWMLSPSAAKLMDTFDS
T1 sequence (Q96SW2 whole entry, the tested form may be a part): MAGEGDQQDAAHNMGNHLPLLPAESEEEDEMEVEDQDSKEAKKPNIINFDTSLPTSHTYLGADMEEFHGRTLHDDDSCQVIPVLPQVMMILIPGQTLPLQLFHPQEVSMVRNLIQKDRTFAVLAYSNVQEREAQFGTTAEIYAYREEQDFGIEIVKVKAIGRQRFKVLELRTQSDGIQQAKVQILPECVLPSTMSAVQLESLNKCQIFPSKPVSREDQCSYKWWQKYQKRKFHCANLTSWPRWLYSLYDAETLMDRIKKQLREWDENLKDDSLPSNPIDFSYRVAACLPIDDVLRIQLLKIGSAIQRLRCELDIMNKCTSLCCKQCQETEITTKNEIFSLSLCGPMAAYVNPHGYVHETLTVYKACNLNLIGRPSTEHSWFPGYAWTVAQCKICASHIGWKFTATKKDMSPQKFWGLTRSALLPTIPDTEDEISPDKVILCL
T1 sequence (Q16531 whole entry partner, the tested form may be a part): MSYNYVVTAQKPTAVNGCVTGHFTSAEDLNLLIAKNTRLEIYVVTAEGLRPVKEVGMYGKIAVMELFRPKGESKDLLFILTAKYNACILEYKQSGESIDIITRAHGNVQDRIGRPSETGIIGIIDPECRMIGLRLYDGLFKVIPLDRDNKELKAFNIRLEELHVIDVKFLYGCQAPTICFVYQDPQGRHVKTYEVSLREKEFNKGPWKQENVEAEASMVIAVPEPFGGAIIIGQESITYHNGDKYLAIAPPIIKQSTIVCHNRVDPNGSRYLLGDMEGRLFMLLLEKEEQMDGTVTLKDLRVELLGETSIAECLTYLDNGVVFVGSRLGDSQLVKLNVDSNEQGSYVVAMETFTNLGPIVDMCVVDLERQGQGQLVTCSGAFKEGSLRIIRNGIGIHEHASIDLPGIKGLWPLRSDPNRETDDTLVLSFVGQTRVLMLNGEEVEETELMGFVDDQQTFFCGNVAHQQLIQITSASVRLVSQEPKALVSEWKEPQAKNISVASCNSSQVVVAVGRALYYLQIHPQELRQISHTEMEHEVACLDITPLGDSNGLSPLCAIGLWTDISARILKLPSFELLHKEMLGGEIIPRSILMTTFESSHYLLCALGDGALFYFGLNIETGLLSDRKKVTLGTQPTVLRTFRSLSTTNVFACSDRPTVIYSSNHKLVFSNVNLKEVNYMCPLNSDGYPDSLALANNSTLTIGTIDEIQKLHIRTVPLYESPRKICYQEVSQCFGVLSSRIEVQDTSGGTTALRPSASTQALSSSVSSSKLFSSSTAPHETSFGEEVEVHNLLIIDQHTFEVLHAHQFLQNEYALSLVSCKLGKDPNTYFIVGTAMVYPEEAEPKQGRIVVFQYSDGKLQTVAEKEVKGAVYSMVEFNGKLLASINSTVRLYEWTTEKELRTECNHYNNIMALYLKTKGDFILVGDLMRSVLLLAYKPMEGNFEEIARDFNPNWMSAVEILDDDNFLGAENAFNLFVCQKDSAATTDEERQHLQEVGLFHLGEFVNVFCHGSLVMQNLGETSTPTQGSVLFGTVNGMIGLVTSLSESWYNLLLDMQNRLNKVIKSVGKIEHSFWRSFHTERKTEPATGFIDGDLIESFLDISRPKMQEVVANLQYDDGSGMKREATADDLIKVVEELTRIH

SMILES	Dmax [%]	DC50 [nM]
CCOc1cc(-c2ccc(N3CCC(CN4CCN(C(=O)CCN5CCC(Oc6ccc7c(c6)CN(C6CCC(=O)NC6=O)C7=O)CC5)CC4)(NC(=O)c4cc(F)ccc4F)CC3)nc2)c2c(C#N)cnn2c1 (centres unmarked) [Example 118, N-[1-(5-{3-cyano-6-ethoxypyrazolo[1,5-a]pyridin-4-yl}pyridin-2-yl)-4-({4-[3-(4-{[2-(2,6-dioxopiperidin-3-yl)-1-oxo-2,3-dihydro-1H-isoindol-5-yl]oxy}piperidin-1-yl)propanoyl]piperazin-1-yl}methyl)piperidin-4-yl]-2,5-difluorobenzamide]	60 to 90	2 to 10
CCOc1cc(-c2ccc(N3CCC(CN4CCN(C(=O)CCN5CC(c6ccc7c(c6)CN(C6CCC(=O)NC6=O)C7=O)C5)CC4)(NC(=O)c4cc(F)ccc4F)CC3)nc2)c2c(C#N)cnn2c1 (centres unmarked) [Example 119, N-[1-(5-{3-cyano-6-ethoxypyrazolo[1,5-a]pyridin-4-yl}pyridin-2-yl)-4-{[4-(3-{3-[2-(2,6-dioxopiperidin-3-yl)-1-oxo-2,3-dihydro-1H-isoindol-5-yl]azetidin-1-yl}propanoyl)piperazin-1-yl]methyl}piperidin-4-yl]-2,5-difluorobenzamide]	> 90	2 to 10
CCOc1cc(-c2ccc(N3CCC(CN4CCN(C(=O)CCN5CC(Oc6ccc7c(c6)CN(C6CCC(=O)NC6=O)C7=O)C5)CC4)(NC(=O)c4cc(F)ccc4F)CC3)nc2)c2c(C#N)cnn2c1 (centres unmarked) [Example 120, N-[1-(5-{3-cyano-6-ethoxypyrazolo[1,5-a]pyridin-4-yl}pyridin-2-yl)-4-({4-[3-(3-{[2-(2,6-dioxopiperidin-3-yl)-1-oxo-2,3-dihydro-1H-isoindol-5-yl]oxy}azetidin-1-yl)propanoyl]piperazin-1-yl}methyl)piperidin-4-yl]-2,5-difluorobenzamide]	> 90	< 2
CCOc1cc(-c2ccc(N3CCC(CN4CCC5(CCC(CC(=O)N6CCC(c7ccc8c(c7)CN(C7CCC(=O)NC7=O)C8=O)CC6)CC5)CC4)(NC(=O)c4cc(F)ccc4F)CC3)nc2)c2c(C#N)cnn2c1 (centres unmarked) [Example 122, N-[1-(5-{3-cyano-6-ethoxypyrazolo[1,5-a]pyridin-4-yl}pyridin-2-yl)-4-{[9-(2-{4-[2-(2,6-dioxopiperidin-3-yl)-1-oxo-2,3-dihydro-1H-isoindol-5-yl]piperidin-1-yl}-2-oxoethyl)-3-azaspiro[5.5]undecan-3-yl]methyl}piperidin-4-yl]-2,5-difluorobenzamide]	> 90	2 to 10
CCOc1cc(-c2ccc(N3CCC(CN4CCC5(CCC(CC(=O)N6CCN(c7ccc8c(c7)C(=O)N(C7CCC(=O)NC7=O)C8)CC6)CC5)CC4)(NC(=O)c4cc(F)ccc4F)CC3)nc2)c2c(C#N)cnn2c1 (centres unmarked) [Example 123, N-[1-(5-{3-cyano-6-ethoxypyrazolo[1,5-a]pyridin-4-yl}pyridin-2-yl)-4-{[9-(2-{4-[2-(2,6-dioxopiperidin-3-yl)-3-oxo-2,3-dihydro-1H-isoindol-5-yl]piperazin-1-yl}-2-oxoethyl)-3-azaspiro[5.5]undecan-3-yl]methyl}piperidin-4-yl]-2,5-difluorobenzamide]	> 90	2 to 10
CCOc1cc(-c2ccc(N3CCC(CN4CCC5(CCC(CC(=O)N6CCN(c7ccc8c(c7)CN(C7CCC(=O)NC7=O)C8=O)CC6)CC5)CC4)(NC(=O)c4cc(F)ccc4F)CC3)nc2)c2c(C#N)cnn2c1 (centres unmarked) [Example 124, N-[1-(5-{3-cyano-6-ethoxypyrazolo[1,5-a]pyridin-4-yl}pyridin-2-yl)-4-{[9-(2-{4-[2-(2,6-dioxopiperidin-3-yl)-1-oxo-2,3-dihydro-1H-isoindol-5-yl]piperazin-1-yl}-2-oxoethyl)-3-azaspiro[5.5]undecan-3-yl]methyl}piperidin-4-yl]-2,5-difluorobenzamide]	> 90	< 2
CCOc1cc(-c2ccc(N3CCC(CN4CCN(C(=O)CCCCCCN5CCN(c6ccc7c(c6)CN(C6CCC(=O)NC6=O)C7=O)CC5)CC4)CC3)nc2)c2c(C#N)cnn2c1 (centres unmarked) [Example 125, 4-[6-(4-{[4-(7-{4-[2-(2,6-dioxopiperidin-3-yl)-1-oxo-2,3-dihydro-1H-isoindol-5-yl]piperazin-1-yl}heptanoyl)piperazin-1-yl]methyl}piperidin-1-yl)pyridin-3-yl]-6-ethoxypyrazolo[1,5-a]pyridine-3-carbonitrile]	> 90	10 to 100
CCOc1cc(-c2ccc(N3CCC(CN4CCN(C(=O)CCN5CCC(c6ccc7c(c6)C(=O)N(C6CCC(=O)NC6=O)C7)CC5)CC4)CC3)nc2)c2c(C#N)cnn2c1 (centres unmarked) [Example 126, 4-[6-(4-{[4-(3-{4-[2-(2,6-dioxopiperidin-3-yl)-3-oxo-2,3-dihydro-1H-isoindol-5-yl]piperidin-1-yl}propanoyl)piperazin-1-yl]methyl}piperidin-1-yl)pyridin-3-yl]-6-ethoxypyrazolo[1,5-a]pyridine-3-carbonitrile]	60 to 90	100 to 2000
CCOc1cc(-c2ccc(N3CCC(C)(CN4CCN(C(=O)CCCCCCN5CCN(c6ccc7c(c6)CN(C6CCC(=O)NC6=O)C7=O)CC5)CC4)CC3)nc2)c2c(C#N)cnn2c1 (centres unmarked) [Example 128, 4-[6-(4-{[4-(7-{4-[2-(2,6-dioxopiperidin-3-yl)-1-oxo-2,3-dihydro-1H-isoindol-5-yl]piperazin-1-yl}heptanoyl)piperazin-1-yl]methyl}-4-methylpiperidin-1-yl)pyridin-3-yl]-6-ethoxypyrazolo[1,5-a]pyridine-3-carbonitrile]	60 to 90	100 to 2000
CCOc1cc(-c2ccc(N3CCC(C)(CN4CCN(C(=O)CCN5CCC(c6ccc7c(c6)CN(C6CCC(=O)NC6=O)C7=O)CC5)CC4)CC3)nc2)c2c(C#N)cnn2c1 (centres unmarked) [Example 129, 4-[6-(4-{[4-(3-{4-[2-(2,6-dioxopiperidin-3-yl)-1-oxo-2,3-dihydro-1H-isoindol-5-yl]piperidin-1-yl}propanoyl)piperazin-1-yl]methyl}-4-methylpiperidin-1-yl)pyridin-3-yl]-6-ethoxypyrazolo[1,5-a]pyridine-3-carbonitrile]	60 to 90	100 to 2000
CCOc1cc(-c2ccc(N3CCC(CN(C)C(=O)CCCCCCN4CCN(c5ccc6c(c5)CN(C5CCC(=O)NC5=O)C6=O)CC4)(NC(=O)c4cc(F)ccc4F)CC3)nc2)c2c(C#N)cnn2c1 (centres unmarked) [Example 137, N-[1-(5-{3-cyano-6-ethoxypyrazolo[1,5-a]pyridin-4-yl}pyridin-2-yl)-4-[(7-{4-[2-(2,6-dioxopiperidin-3-yl)-1-oxo-2,3-dihydro-1H-isoindol-5-yl]piperazin-1-yl}-N-methylheptanamido)methyl]piperidin-4-yl]-2,5-difluorobenzamide]	> 90	2 to 10
CCOc1cc(-c2ccc(N3CCC(CN(C)C(=O)CCCCN4CCC(c5ccc6c(c5)CN(C5CCC(=O)NC5=O)C6=O)CC4)(NC(=O)c4cc(F)ccc4F)CC3)nc2)c2c(C#N)cnn2c1 (centres unmarked) [Example 139, N-[1-(5-{3-cyano-6-ethoxypyrazolo[1,5-a]pyridin-4-yl}pyridin-2-yl)-4-[(5-{4-[2-(2,6-dioxopiperidin-3-yl)-1-oxo-2,3-dihydro-1H-isoindol-5-yl]piperidin-1-yl}-N-methylpentanamido)methyl]piperidin-4-yl]-2,5-difluorobenzamide]	> 90	10 to 100
CCOc1cc(-c2ccc(N3CCC(CN(C)C(=O)CCCCCCN4CCC(c5ccc6c(c5)CN(C5CCC(=O)NC5=O)C6=O)CC4)(NC(=O)c4cc(F)ccc4F)CC3)nc2)c2c(C#N)cnn2c1 (centres unmarked) [Example 140, N-[1-(5-{3-cyano-6-ethoxypyrazolo[1,5-a]pyridin-4-yl}pyridin-2-yl)-4-[(7-{4-[2-(2,6-dioxopiperidin-3-yl)-1-oxo-2,3-dihydro-1H-isoindol-5-yl]piperidin-1-yl}-N-methylheptanamido)methyl]piperidin-4-yl]-2,5-difluorobenzamide]	> 90	2 to 10
CCOc1cc(-c2ccc(N3CCC(CN(C)C(=O)CCCCCCN4CCN(c5ccc6c(c5)C(=O)N(C5CCC(=O)NC5=O)C6)CC4)(NC(=O)c4cc(F)ccc4F)CC3)nc2)c2c(C#N)cnn2c1 (centres unmarked) [Example 143, N-[1-(5-{3-cyano-6-ethoxypyrazolo[1,5-a]pyridin-4-yl}pyridin-2-yl)-4-[(7-{4-[2-(2,6-dioxopiperidin-3-yl)-3-oxo-2,3-dihydro-1H-isoindol-5-yl]piperazin-1-yl}-N-methylheptanamido)methyl]piperidin-4-yl]-2,5-difluorobenzamide]	> 90	2 to 10
CCOc1cc(-c2ccc(N3CCC(CN(C)C(=O)CCCCN4CCC(c5ccc6c(c5)C(=O)N(C5CCC(=O)NC5=O)C6)CC4)(NC(=O)c4cc(F)ccc4F)CC3)nc2)c2c(C#N)cnn2c1 (centres unmarked) [Example 145, N-[1-(5-{3-cyano-6-ethoxypyrazolo[1,5-a]pyridin-4-yl}pyridin-2-yl)-4-[(5-{4-[2-(2,6-dioxopiperidin-3-yl)-3-oxo-2,3-dihydro-1H-isoindol-5-yl]piperidin-1-yl}-N-methylpentanamido)methyl]piperidin-4-yl]-2,5-difluorobenzamide]	60 to 90	2 to 10
CCOc1cc(-c2ccc(N3CCC(CN(C)C(=O)CCCCCCN4CCC(c5ccc6c(c5)C(=O)N(C5CCC(=O)NC5=O)C6)CC4)(NC(=O)c4cc(F)ccc4F)CC3)nc2)c2c(C#N)cnn2c1 (centres unmarked) [Example 146, N-[1-(5-{3-cyano-6-ethoxypyrazolo[1,5-a]pyridin-4-yl}pyridin-2-yl)-4-[(7-{4-[2-(2,6-dioxopiperidin-3-yl)-3-oxo-2,3-dihydro-1H-isoindol-5-yl]piperidin-1-yl}-N-methylheptanamido)methyl]piperidin-4-yl]-2,5-difluorobenzamide]	> 90	10 to 100
